From US11760773B2, “Small molecule drug conjugates of gemcitabine monophosphate” (MaveriX Oncology, Inc., priority 2018, dated 2023)

Assays:
Assay type in all cases: in vivo
[1] = Int 1-4 dog plasma PK (study j); settings: male beagle dog; for AUC(0-inf): read-out: AUC0-inf; for MRT inf: read-out: MRT0-inf; for MRT last: read-out: MRT0-last
Procedure: Objectives: to compare the plasma pharmacokinetics and stability of Int 1-4 in plasma following single intravenous infusion administration of t 1-4 at 10 mg/kg and 20 mg/kg in the male Beagle dog.

[2] = Int 1-4 and gemcitabine comparative PK in male cynomolgus monkey (study g); settings: plasma, male cynomolgus monkey; for AUC(0-inf): read-out: AUC0-inf; for MRT inf: read-out: MRT0-inf; for MRT last: read-out: MRT0-last; for Vd: read-out: Vdss
Procedure: Objectives: to compare the plasma pharmacokinetics and stability of Int 1-4 versus gemcitabine in plasma following single intravenous infusion administration of Int 1-4 at 5 mg/kg and 10 mg/kg with equimolar gemcitabine at 2.65 mg/kg and 5.29 mg/kg in male cynomolgous monkeys
PK measurements: compare PK parameters C0, CL, Vdss, Cmax, tmax, t1/2, AUC(0-t), AUC(0-inf), MRT(0-t), MRT(0-inf) for Int 1-4 with gemcitabine

[3] = Comparative dog plasma PK of Int 1-4 versus gemcitabine (study k); settings: male beagle dog; for AUC(0-inf): read-out: AUC0-inf; for Cmax: read-out: Cmax; for MRT inf: read-out: MRT0-inf; for MRT last: read-out: MRT0-last
Procedure: Objectives: to compare the plasma pharmacokinetics and stability of Int-4 in plasma following single intravenous infusion administration of Int 1-4 at 5 mg/kg and 10 mg/kg versus gemcitabine at 5 mg/kg in the male Beagle dog

[4] = Comparative plasma PK of Int 1-4 versus gemcitabine in mouse (study a); settings: mouse, plasma, CD-1 mice, after iv Int 1-4 9.4 mg/kg
[5] = after iv Int 1-4 10 mg/kg (study j)
[6] = after iv Int 1-4 20 mg/kg (study j)
[7] = after iv Int 1-4 5 mg/kg (study g)
[8] = after iv Int 1-4 10 mg/kg (study g)
[9] = after iv gemcitabine 2.65 mg/kg
[10] = after iv Int 1-4 5 mg/kg (study k)
[11] = after iv Int 1-4 10 mg/kg (study k)
[12] = after iv gemcitabine 5.29 mg/kg

## Nc1ccn([C@@H]2O[C@H](CO)[C@@H](O)C2(F)F)c(=O)n1 [Gemcitabine, gemcitabine]
[1]; [5]
  AUC(0-t): 6160 ng·h/mL
  half-life: 3.1 h
  AUC(0-inf): 6180 ng·h/mL
  MRT inf: 3.56 h
  MRT last: 3.47 h
[1]; [6]
  AUC(0-t): 7690 ng·h/mL
  half-life: 3.55 h
  AUC(0-inf): 7880 ng·h/mL
  MRT inf: 3.28 h
  MRT last: 2.69 h
[2]; [7]
  AUC(0-t): 5.37 ng·h/mL
  half-life: 0.15 h
  AUC(0-inf): 8.13 ng·h/mL
  MRT inf: 0.24 h
  MRT last: 0.15 h
  Vd: 0.349 L/kg
[2]; [8]
  AUC(0-t): 16.2 ng·h/mL
  half-life: 0.18 h
  AUC(0-inf): 17.5 ng·h/mL
  MRT inf: 0.26 h
  MRT last: 0.21 h
[2]; [9]
  AUC(0-t): 154 ng·h/mL
  C0: 17000 ng/mL
  clearance: 323 mL/min/kg
  half-life: 0.02 h
  AUC(0-inf): 154 ng·h/mL
  MRT inf: 0.01 h
  MRT last: 0.01 h
  Vd: 0.221 L/kg
[3]; [10]
  AUC(0-t): 2330 ng·h/mL
  half-life: 2.01 h
  AUC(0-inf): 2390 ng·h/mL
  Cmax: 872 ng/mL
  MRT inf: 2.7 h
  MRT last: 2.48 h
[3]; [11]
  AUC(0-t): 4140 ng·h/mL
  half-life: 1.6 h
  AUC(0-inf): 4290 ng·h/mL
  MRT inf: 2.45 h
  MRT last: 2.16 h
[3]; [12]
  AUC(0-t): 8230 ng·h/mL
  C0: 11500 ng/mL
  clearance: 11 mL/min/kg
  half-life: 2.04 h
  AUC(0-inf): 8600 ng·h/mL
  Cmax: 8620 ng/mL
  MRT last: 2.19 h
[3]; after iv gemcitabine 5.29 mg/kg, read-out: Vdss
  Vd: 1.61 L/kg
[4]
  AUC(0-t): 64.9 ng·h/mL
  half-life: 0.968 h
[4]; read-out: AUC0-inf
  AUC(0-inf): 74.1 ng·h/mL
[4]; read-out: Cmax
  Cmax: 81.9 ng/mL
[4]; read-out: MRT0-inf
  MRT inf: 1.27 h
